Assay results taken from patent US20240398817A1, “CARDIO- AND RENOSAFE ANTIDIABETIC THERAPY” (priority 2018, published 2024).

System: patients with type 2 diabetes at high vascular risk
Experiment: Cardiovascular and Renal Outcomes Trial: linagliptin 5 mg once daily vs placebo on top of standard of care
Type: in vivo
Conditions: for 3P-MACE: hazard ratio (95% CI) vs placebo: Cox regression
Experimental: The effect of linagliptin on cardiovascular risk in adult patients with type 2 diabetes mellitus and with increased CV risk evidenced by a history of established macrovascular or renal disease (e.g. as defined herein) was evaluated in a multi-center, multi-national, randomized, double-blind parallel group trial. The trial compared the risk of experiencing a major adverse cardiovascular event (MACE) between linagliptin and placebo when these were added to and used concomitantly with standard of care treatments for diabetes (HbA1c), cardiovascular risk factors and renal disease.
The primary endpoint in this trial was the time to first occurrence of three point (3P) MACE. A major adverse cardiac event was defined as a cardiovascular death or a nonfatal myocardial infarction (MI) or a nonfatal stroke. The statistical analysis plan tested for non-inferiority for the occurrence of (3P) MACE. […] The secondary endpoint was a renal composite, defined as renal death or sustained end stage renal disease or sustained decrease of 40% or more in eGFR.
Type 2 diabetes patient with insufficient glycemic control (naïve or pre-treated with any antidiabetic background medication, excluding treatment with GLP-1 receptor agonists, DPP-4inhibitors or SGLT-2 inhibitors if ≥consecutive 7 days, e.g. having HbA1c 6.5-10%), and high risk of cardiovascular events, e.g. defined by: • albuminuria (micro or macro) and previous macrovascular disease: e.g. defined according to Condition I as indicated below; • and/or • impaired renal function: e.g. as defined according to Condition II as indicated below;
Background and aims: People with type 2 diabetes (T2D) are at increased risk for hospitalization for heart failure (hHF), particularly in the setting of concomitant cardiovascular (CV) and/or kidney disease. […] Here we present analyses of HF outcomes with the DPP-4 inhibitor linagliptin (LINA) vs. placebo (PBO) from a Cardiovascular and Renal Outcomes Trial assessing cardiovascular safety and renal microvascular outcome in patients with type 2 diabetes at high vascular risk, a large CV outcomes trial that enrolled participants with T2D at high risk for hHF due to concomitant CV and/or chronic kidney disease. Materials and methods: People with T2D and concomitant CV and/or kidney disease were randomized to receive LINA 5 mg, or PBO once daily (1:1), on top of standard of care. All hHF, CV outcomes, and deaths were centrally adjudicated, with individual and composite HF-related outcomes analyses comparing LINA vs. placebo. Investigator-reported HF-related adverse events, whether or not confirmed by adjudication, were also analyzed. A Cox proportional hazards model adjusting for region and history of HF was used for analyses of first events. Recurrent hHF events were analyzed using a negative binomial model.
Methods: The present Cardiovascular and Renal Outcomes Trial randomized people with T2D and i) concomitant CV disease with UACR >30 mg/g or ii) prevalent CKD (i.e. GFR <45 ml/min/1.73m2 and/or UACR >200 mg/g) to receive the DPP-4 inhibitor linagliptin (5 mg) or placebo once daily in a double-blind fashion. The primary CV endpoint was 3P-MACE, with a key secondary kidney endpoint (adjudicated ESKD, renal death, or sustained ≥40% decrease in eGFR from baseline) and other renal outcomes (including albuminuria and eGFR slope) also assessed. Subgroups were assessed by baseline kidney function (eGFR ≥/<45 ml/min/1.73m2and eGFR ≥/<30, 45 or 60 ml/min/1.73m2).
Adults with type 2 diabetes, HbA1c 6.5-10.0% inclusive, and high CV risk were eligible for inclusion. […] Macrovascular disease eligibility criteria was based on documented and confirmed history of myocardial infarction, coronary artery disease, stroke, carotid artery disease, or peripheral artery disease. Participants with end-stage kidney disease (ESKD), defined as eGFR <15 or requiring maintenance dialysis, were excluded.

[1] = all patients, listed as Lingagliptin
[2] = all patients, listed as linagliptin
[3] = both, human, in vivo, 5 mg, 1.9 years
[4] = eGFR ≥30 to <45 mL/min/1.73 m^2

Compound: CC#CCn1c(N2CCC[C@@H](N)C2)nc2c1c(=O)n(Cc1nc(C)c3ccccc3n1)c(=O)n2C [Linagliptin, 1-[(4-methyl-quinazolin-2-yl)methyl]-3-methyl-7-(2-butyn-1-yl)-8-(3-(R)-amino-piperidin-1-yl)-xanthine]
- 3P-MACE: rate/100 patient-years (all patients): 4.69 per 100 patient-years
- All-cause death: rate per 100 person-years (all patients): 4.69 per 100 person-years
- All-cause mortality: incidence rate per 1000 PY (all patients): 46.9 per 1000 patient years
- All-cause mortality: number of subjects (all patients): 367
- Hospitalization for heart failure: incidence rate/1000 patient-years (all patients): 27.7 per 1000 patient years
- Hospitalization for heart failure: number of patients (all patients): 209
- Hospitalization for heart failure: rate/100 patient-years (all patients): 2.77 per 100 patient-years
- Renal composite (40% eGFR): incidence rate per 1000 PY (all patients): 48.9 per 1000 patient years
- Renal composite (40% eGFR): rate/100 patient-years (all patients): 4.89 per 100 patient-years
- Renal composite (renal death, sustained ESRD, sustained decrease of 40% or more in eGFR): number of subjects (all patients): 327
- Renal death or sustained ESKD: number of patients (all patients): 136
- Renal death or sustained ESKD: patients, % (all patients): (3.9) %
- Renal death or sustained ESKD: rate/1000 patient-years (all patients): 17.8 per 1000 patient years
- Renal death, or sustained ESKD: rate/100 patient-years (all patients): 1.78 per 100 patient-years
- Renal death, sustained ESKD, or sustained ≥ doubling of se-creatinine from baseline: n (all patients): 219
- Renal death, sustained ESKD, or ≥ doubling of se-creatinine: % (all patients): (6.3) %
- Renal death, sustained ESKD, or ≥ doubling of se-creatinine: rate/100 patient-years (all patients): 3.21 per 100 patient-years
- 3P-MACE: hazard ratio (95% CI) vs placebo (all patients): 1.02
- 3P-MACE: hazard ratio (95% CI) vs placebo [1]: 1.02 (0.89. 1.17)
- 3P-MACE (CV death, non-fatal MI, non-fatal stroke): number of subjects with event (all patients, n = 3494): 434
- Hospitalization for heart failure: hazard ratio (95% CI) vs placebo (all patients, listed as LINA): 0.90
- Renal composite (40% eGFR): hazard ratio (CI) vs placebo (all patients, listed as LINA): 1.04
- 3P-MACE: subjects with event, % [1]: 12.4%
- Renal composite (40% eGFR): hazard ratio (CI) vs placebo [1]: 1.04 (0.89, 1.22)
- Renal composite (40% eGFR): subjects, % [1]: 9.4%
- 3P-MACE: rate/100 patient-years [2]: 5.77 per 100 patient-years
- 3P-MACE: subjects with event, % [2]: 12.4%
- All-cause mortality: hazard ratio (95% CI) vs placebo [2]: 0.98
- All-cause mortality: subjects, % [2]: 10.5%
- Hospitalization for heart failure: hazard ratio (95% CI) vs placebo [2]: 0.90
- Hospitalization for heart failure: patients, % [2]: 6.0%
- Renal composite (40% eGFR): hazard ratio (CI) vs placebo [2]: 1.04
- Renal composite (40% eGFR): subjects, % [2]: 9.4%
- Renal death or sustained ESKD: hazard ratio (95% CI) vs placebo [2]: 0.87
- Renal death or sustained ESKD: patients, % [2]: 3.9%
- Fatal cases of pancreatitis: % [3]: 0.1%
- Fatal cases of pancreatitis: n [3]: 2
- 3-point MACE: hazard ratio vs placebo (eGFR <30 mL/min/1.73 m^2): 0.97
- 3-point MACE: patients with event/patients analyzed (eGFR <30 mL/min/1.73 m^2): 101/516
- Key secondary kidney outcome: hazard ratio vs placebo (eGFR <30 mL/min/1.73 m^2): 1.05
- Key secondary kidney outcome: patients with event/patients analyzed (eGFR <30 mL/min/1.73 m^2): 133/516
- 3P-MACE: % (eGFR < 45 (n = 3000)): (16.6) %
- 3P-MACE: HR (95% CI) vs placebo (eGFR < 45 (n = 3000)): 1.02 (0.85, 1.21)
- 3P-MACE: n (eGFR < 45 (n = 3000)): 250
- 3P-MACE: rate/100 patient-years (eGFR < 45 (n = 3000)): 7.61 per 100 patient-years
- Hospitalized heart failure: % (eGFR < 45 (n = 3000)): (8.9) %
- Hospitalized heart failure: HR (95% CI) vs placebo (eGFR < 45 (n = 3000)): 0.87 (0.69, 1.10)
- Hospitalized heart failure: n (eGFR < 45 (n = 3000)): 135
- Hospitalized heart failure: rate/100 patient-years (eGFR < 45 (n = 3000)): 4.13 per 100 patient-years
- Key secondary kidney endpoint: % (eGFR < 45 (n = 3000)): (14.7) %
- Key secondary kidney endpoint: HR (95% CI) vs placebo (eGFR < 45 (n = 3000)): 0.97 (0.80, 1.17)
- Key secondary kidney endpoint: n (eGFR < 45 (n = 3000)): 222
- Key secondary kidney endpoint: rate/100 patient-years (eGFR < 45 (n = 3000)): 7.83 per 100 patient-years
- Renal death, or sustained ESKD: % (eGFR < 45 (n = 3000)): (8.2) %
- Renal death, or sustained ESKD: HR (95% CI) vs placebo (eGFR < 45 (n = 3000)): 0.82 (0.64, 1.04)
- Renal death, or sustained ESKD: n (eGFR < 45 (n = 3000)): 124
- Renal death, or sustained ESKD: rate/100 patient-years (eGFR < 45 (n = 3000)): 3.78 per 100 patient-years
- Renal death, sustained ESKD, or ≥ doubling of se-creatinine: % (eGFR < 45 (n = 3000)): (10.9) %
- Renal death, sustained ESKD, or ≥ doubling of se-creatinine: HR (95% CI) vs placebo (eGFR < 45 (n = 3000)): 0.87 (0.70, 1.07)
- Renal death, sustained ESKD, or ≥ doubling of se-creatinine: n (eGFR < 45 (n = 3000)): 165
- Renal death, sustained ESKD, or ≥ doubling of se-creatinine: rate/100 patient-years (eGFR < 45 (n = 3000)): 5.69 per 100 patient-years
- Risk of composite microvascular outcome 1 vs placebo, in words (eGFR decrease 50%): significantly reduced
- Risk of composite microvascular outcome 2 and 3 vs placebo, in words (eGFR decrease of 40% and 30%): also significantly reduced
- 3-point MACE: hazard ratio vs placebo [4]: 1.07
- 3-point MACE: patients with event/patients analyzed [4]: 149/994
- Key secondary kidney outcome: hazard ratio vs placebo [4]: 0.95
- Key secondary kidney outcome: patients with event/patients analyzed [4]: 89/994
- 3P-MACE: % (eGFR ≥ 45 (n = 3979)): (9.3) %
- 3P-MACE: HR (95% CI) vs placebo (eGFR ≥ 45 (n = 3979)): 1.03 (0.84, 1.26)
- 3P-MACE: n (eGFR ≥ 45 (n = 3979)): 184
- 3P-MACE: rate/100 patient-years (eGFR ≥ 45 (n = 3979)): 4.34 per 100 patient-years
- Hospitalized heart failure: % (eGFR ≥ 45 (n = 3979)): (3.7) %
- Hospitalized heart failure: HR (95% CI) vs placebo (eGFR ≥ 45 (n = 3979)): 0.97 (0.70, 1.34)
- Hospitalized heart failure: n (eGFR ≥ 45 (n = 3979)): 74
- Hospitalized heart failure: rate/100 patient-years (eGFR ≥ 45 (n = 3979)): 1.73 per 100 patient-years
- Key secondary kidney endpoint: % (eGFR ≥ 45 (n = 3979)): (5.3) %
- Key secondary kidney endpoint: HR (95% CI) vs placebo (eGFR ≥ 45 (n = 3979)): 1.19 (0.89, 1.58)
- Key secondary kidney endpoint: n (eGFR ≥ 45 (n = 3979)): 105
- Key secondary kidney endpoint: rate/100 patient-years (eGFR ≥ 45 (n = 3979)): 2.72 per 100 patient-years
- Renal death, or sustained ESKD: % (eGFR ≥ 45 (n = 3979)): (0.6) %
- Renal death, or sustained ESKD: HR (95% CI) vs placebo (eGFR ≥ 45 (n = 3979)): 1.50 (0.61, 3.67)
- Renal death, or sustained ESKD: n (eGFR ≥ 45 (n = 3979)): 12
- Renal death, or sustained ESKD: rate/100 patient-years (eGFR ≥ 45 (n = 3979)): 0.28 per 100 patient-years
- Renal death, sustained ESKD, or ≥ doubling of se-creatinine: % (eGFR ≥ 45 (n = 3979)): (2.7) %
- Renal death, sustained ESKD, or ≥ doubling of se-creatinine: HR (95% CI) vs placebo (eGFR ≥ 45 (n = 3979)): 1.08 (0.73, 1.59)
